Consider 2 molecules from US8802691B2 (priority 2009, dated 2014).

Each structure is given as a SMILES string. Where two headings read alike, the source gives them in different places.

The test system of data set [1] is canine Leishmaniosis. Conditions: conventional treatments monitored by serology, bibliography, cited from earlier work.
The next data set relates to prolactine hormone. Conditions: for Tmax of prolactine (time to maximum prolactine concentration), mean: male dog, serum. The method, then:
During each of the 7 phases blood samples were extracted at different times (t=0 h, 0.5 h, 1 h, 2 h, 4 h, 6 h, 8 h, 10 h, 12 h, 18 h, 36 y 48 h) for determining serum concentrations of prolactine using a commercial immuno enzymatic assay kit.

The subject of the next data set is monocytes. Kind of data set: NBT reduction test in whole blood of healthy dogs: activated monocytes. Type of data set: in vivo, dog. The method, then: (§1) 20 dogs of different breed, sex and age, were randomly distributed into two groups of 10. […] During the study several visits were paid (days 0, 15, 30, 60 and 90) during which some clinical examinations were done and blood samples were collected for biochemical, haemathological and serological analyses (DAT). The percentages of activated monocytes and neutrophils were determined in whole blood samples through the nitroblue tetrazolium (NBT) reduction test.

The subject of the next data set is neutrophils. Kind of data set: NBT reduction test in whole blood of healthy dogs: activated neutrophils. The class given is in vivo, dog. The method, then: as §1
The subject of a further data set is Leishmania infantum. In words: Circulating monocyte-derived macrophages from treated healthy dogs, in vitro infection with Leishmania infantum promastigotes. The class given is cell-based. An excerpt: It is designed as a prospective monocentric study. A total of 10 dogs have been included, each of them acting as its own control, for which reason it has not been considered necessary the use of a negative control. […] During the study several visits are paid the days 0 (basal), 15 and 30 of treatment, and days 60 and 90 (one and two months after finishing the treatment, respectively). During each visit blood is collected from animals and it is processed to isolate and culture monocytes-macrophages, which are then co-cultivated with Leishmania promastigotes. After 48 hours the nitroblue tetrazolium (NBT) reduction test is carried out on the cultures and the percentage of parasited macrophages and the number of amastigotes per macrophage were measured. Blood samples are also collected on days 0 and 90 to assess animal health by biochemical and haemathological analyses.

The subject of data set [2] is canine Leishmaniosis. In words: Controlled study of a domperidone treatment plan in seronegative dogs in an endemic area (Example 5). Type of data set: in vivo, dog. Conditions: treated group n = 120, two 30-day treatments at 0.5 mg/kg/day oral. An excerpt:
The study lasted for 9 months, beginning at the onset of the activity period of the vector insect in the geographical area in which animals were found and closing three months after the end of this period. The presence of the vector was confirmed before starting the treatment.
The remaining 120 animals received a placebo under an equivalent dosage regime.

In data set [3] the test system is canine Leishmaniosis. Kind of data set: Clinical study of Domperidone alone in dogs with initial stage Leishmaniosis (Example 6). The class given is in vivo, dog. Conditions: for percentage of dogs with antibody titre lower than DAY 0: oral 1 mg/kg/12 h (<30 kg) or 0.7 mg/kg/12 h for 30 days, 70 dogs. The protocol:
A clinical study was performed including a group of 70 dogs with an initial stage of Leishmaniosis (antibody titre against Leishmania between 1/800 and 1/1600-threshold of positively 1/800-and oligosymptomatics).
[…] During said controls different immunological (antibody titre against Leishmania-DAT, intradermoreaction test-Leishmanina), clinical (clinical symptoms, body weight) and analytical (biochemical profile, haematology, proteinogram and urine test for the determination of UPC ratio) parameters were assessed.

For data set [4], the system named is canine Leishmaniosis.
Another data set relates to L. Infantum. The settings on record: 2 mg/kg/day, dogs infected with L. Infantum, ES 2246142; cited from earlier work.
Setting [5] is: Day 0 (before treatment), 0.5 mg/kg/day oral for 30 days, healthy dogs n = 10.
The mark [6] stands for this setting: Day 15, 0.5 mg/kg/day oral for 30 days, healthy dogs n = 10.
Setting [7] is: Day 30, 0.5 mg/kg/day oral for 30 days, healthy dogs n = 10.
[8] abbreviates: Day 90 (60 days after end of treatment), 0.5 mg/kg/day oral for 30 days.
Where [9] appears, read: sample of Day 0 (basal), dogs given 0.5 mg/kg/day oral for 30 days.
[10] abbreviates: sample of Day 15, dogs given 0.5 mg/kg/day oral for 30 days.
The mark [11] stands for this setting: sample of Day 30, dogs given 0.5 mg/kg/day oral for 30 days.
[12] abbreviates: sample of Day 60 (one month after end of treatment).
The mark [13] stands for this setting: sample of Day 90 (two months after end of treatment).

`Oc1ncnc2[nH]ncc12` [Alopurinol]: the “time after onset of treatment until decrease in the antibody titre against Leishmania is observed” value was at least 180 days in the data set on canine Leishmaniosis [1] and 180 days in the data set with canine Leishmaniosis [1] (listed as alopurinol).

With `O=c1[nH]c2ccccc2n1CCCN1CCC(n2c(=O)[nH]c3cc(Cl)ccc32)CC1` [Domperidone], the “average concentrations of prolactine in the first 36 hours after administration versus placebo” value in the data set on prolactine hormone (all six dosages 0.125-4 mg/kg, single oral dose) is given as “remained above the prolactine concentration in the group treated with the placebo”. Also, the “Tmax of prolactine (time to maximum prolactine concentration), mean” value with prolactine hormone (single oral dose 0.125 mg/kg) came out at 8.6 h; in the data set on prolactine hormone (single oral dose 0.250 mg/kg) it was 7.2 h; in the data set on prolactine hormone (single oral dose 0.5 mg/kg), 3.7 h; with prolactine hormone (single oral dose 1 mg/kg), 2.7 h; in the data set on prolactine hormone (single oral dose 2 mg/kg), 5.0 h; in the data set with prolactine hormone (single oral dose 4 mg/kg), 4.6 h. In addition, the “percentage of activated monocytes, mean” value is reported as 3.200% in the data set on monocytes (setting [5]); 26.10% with monocytes (setting [6]); 26.40% in the data set on monocytes (setting [7]); 8.600% with monocytes (Day 60 (30 days after end of treatment), 0.5 mg/kg/day oral for 30 days); 3.100% in the data set with monocytes (setting [8]). Further, the “percentage of activated neutrophils, mean” value came to 5.700% in the data set with neutrophils (setting [5]), 38.50% with neutrophils (setting [6]), 40.00% in the data set with neutrophils (setting [7]) and 5.900% with neutrophils (setting [8]). For the same molecule, the “number of amastigotes per macrophage after 48 hours of in vitro co-culture with Leishmania infantum promastigotes, mean” value with Leishmania infantum (setting [9]) is on record as 44.4; with Leishmania infantum (setting [10]) it was 9.7; in the data set on Leishmania infantum (setting [11]), 11.3; in the data set on Leishmania infantum (setting [12]) it was 23.1; in the data set with Leishmania infantum (setting [13]), 42.6. Also, the “percentage of positive NBT macrophages after 48 hours of co-culture with Leishmania infantum promastigotes, mean” value was 2.00% in the data set on Leishmania infantum (setting [9]); 61.10% in the data set on Leishmania infantum (setting [10]); 62.20% with Leishmania infantum (setting [11]); 1.70% in the data set with Leishmania infantum (setting [12]); 1.80% in the data set with Leishmania infantum (setting [13]). Also, the “percentage of macrophages infected after 48 hours of in vitro culture with Leishmania infantum promastigotes, mean” value in the data set on Leishmania infantum (setting [12]) was 82.6%; in the data set with Leishmania infantum (setting [13]), 89.5%. For the same molecule, the “animals with seropositivity against Leishmania (DAT≧1/400) at the end of the study” value in the data set on canine Leishmaniosis [2] stood at 0%. The “animals showing clinical symptoms indicative of adverse reactions attributable to the medication” value in the data set with canine Leishmaniosis [2] (9 months) is on record as “None”. For the same molecule, the “Animals WITH signs of canine Leishmaniosis, accumulated percentage” value with canine Leishmaniosis [2] (end of study (9th month)) was 0%; in the data set on canine Leishmaniosis [4] (0.5 mg/kg, 720 h), 11%; in the data set on canine Leishmaniosis [4] (treated group n = 45, 0.5 mg/kg/day for 30 days each four months, end of study (second year), highly endemic area), 11%. Moreover, the “Animals WITHOUT signs of canine Leishmaniosis, accumulated percentage” value in the data set on canine Leishmaniosis [2] (end of study (9th month)) was 100%; with canine Leishmaniosis [4] (0.5 mg/kg, 720 h), 85%. In addition, the “percentage of dogs with antibody titre lower than DAY 0” value with canine Leishmaniosis [3] (DAY 30) was determined as 10%; in the data set with canine Leishmaniosis [3] (DAY 90), 47%; with canine Leishmaniosis [3] (DAY 180), 57%. The “animals with total disappearance of clinical symptoms (mainly lymphadenopathy)” value in the data set with canine Leishmaniosis [3] (in the course of the 12 months after the onset of the treatment) came to 100%. Moreover, the “effect on clinical signs of Leishmaniosis and level of antibodies” value in the data set on L. Infantum is listed as “able to reduce the clinical signs of Leishmaniosis and/or to reduce the level of antibodies in infected animals”.
